Data published in article PMC6253991, “2-(3,4-Dihydro-4-Oxothieno[2,3-d]pyrimidin-2-ylthio) Acetamides as a New Class of Falcipain-2 Inhibitors. 3. Design, Synthesis and Biological Evaluation” (Molecules, 2009).

Columns and labels:
[1] = biological target: T1, recombinant Falcipain-2 (FP-2) (Plasmodium falciparum, UniProt Q8I6U4); experiment: Falcipain-2 enzyme inhibition assay (fluorogenic substrate Z-Leu-Arg-AMC); assay type: biochemical; details: for IC50 / inhibition at 10 µM: FP-2 30 nM, pH 5.5, 30 min preincubation; for IC50: substrate Z-Leu-Arg-AMC 25 μM; for inhibition at 10 µM: pH 5.5, compound at 10 μM, substrate 25 μM, read-out: Inhibition rate at 10 μM (%)
T1 construct: made in house
T1 sequence (Q8I6U4 244-484): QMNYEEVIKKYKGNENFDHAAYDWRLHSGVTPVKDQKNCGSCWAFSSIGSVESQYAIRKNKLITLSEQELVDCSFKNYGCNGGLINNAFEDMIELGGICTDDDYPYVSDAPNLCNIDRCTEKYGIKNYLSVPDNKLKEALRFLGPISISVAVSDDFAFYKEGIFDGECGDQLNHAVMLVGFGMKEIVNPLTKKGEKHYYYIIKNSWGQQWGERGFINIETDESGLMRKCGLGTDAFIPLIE
Method: For the primary assay, the percent inhibitions of the compounds at 10 μM were measured. […] Therefore, we determined their IC50 values (Table 1).
The purification and refolding of recombinant protein Falcipain-2 was performed as described by Shenai et al. IC50 values against recombinant Falcipain-2 were determined as described previously. FP-2 (30 nM) was incubated for 30 min at room temperature in 100 mM sodium acetate, pH 5.5, 10 mM DTT, with different concentrations of tested inhibitors. Inhibitor solutions were prepared from stock in DMSO (maximum concentration of DMSO in the assay was 1%). After 30 min incubation, the substrate Z-Leu-Arg-AMC (benzoxycarbonyl-Leu-Arg-7-amino-4-methylcoumarin, Bachem AG) in the same buffer was added to a final concentration of 25 μM. The increase in fluorescence (excitation at 355 nm and emission at 460 nm) was monitored for 30 min at room temperature with an automated microtiter plate spectrofluorimeter (Molecular Devices, Flex station). Half-maximal inhibitory concentration (IC50) was determined from plots of percent activity over compound concentration using GraphPad Prism software.

Compound | IC50 [1] | inhibition at 10 µM [1] | inhibitory activity relative to prototype compound 1 (times greater) ([1]; ratio of IC50s against FP-2 versus compound 1) | melting point
C=CCn1c(SCC(=O)Nc2sc3c(c2C(N)=O)CCC3)nc2scc(-c3ccccc3)c2c1=O [Compound 1, 2-(2-(3-Allyl-3,4-dihydro-4-oxo-5-phenylthieno[2,3-d]pyrimidin-2-ylthio)acetamido)-5,6-dihydro-4H-cyclopenta[b]thiophene-3-carboxamide] | 2.81 µM | 88.7% |  | 
NC(=O)c1c(NC(=O)CSc2nc3scc(-c4ccccc4)c3c(=O)n2C2CCCCC2)sc2c1CCC2 [Compound 2a, 2-(2-(3-Cyclohexyl-3,4-dihydro-4-oxo-5-phenylthieno[2,3-d]pyrimidin-2-ylthio)acetamido)-5,6-dihydro-4H-cyclopenta[b]thiophene-3-carboxamide] | 1.46 µM | > 90% | ~ 2 times | 
NC(=O)c1c(NC(=O)CSc2nc3scc(-c4ccccc4)c3c(=O)n2-c2cccc(F)c2)sc2c1CCC2 [Compound 2b] | 2.05 µM | 79% |  | 234 to 239 °C
NC(=O)c1c(NC(=O)CSc2nc3scc(-c4ccccc4)c3c(=O)n2-c2ccc([N+](=O)[O-])cc2)sc2c1CCC2 [Compound 2c] | 2.77 µM | 85.4% |  | 271 to 274 °C
NC(=O)c1c(NC(=O)CSc2nc3scc(-c4ccccc4)c3c(=O)n2-c2ccc(Cl)cc2)sc2c1CCC2 [Compound 2d] | 4.3 µM | 84.7% |  | 247 to 249 °C
NC(=O)c1c(NC(=O)CSc2nc3scc(-c4ccccc4)c3c(=O)n2Cc2ccccc2)sc2c1CCC2 [Compound 2e] | 5.74 µM | > 90% |  | 163 to 167 °C
C=CCn1c(SCC(=O)Nc2sc3c(c2C(N)=O)CCC3)nc2sc3c(c2c1=O)CCCC3 [Compound 3a] | 5.77 µM | 82.2% |  | 
C=CCn1c(SCC(=O)Nc2sc3c(c2C(N)=O)CCC3)nc2scc(-c3ccc(Cl)cc3)c2c1=O [Compound 3b, 2-(2-(3-Allyl-3,4-dihydro-4-oxo-5-(4-chlorophenyl)thieno[2,3-d]pyrimidin-2-ylthio)acetamido)-5,6-dihydro-4H-cyclopenta[b]thiophene-3-carboxamide] | 2.95 µM | 85.7% |  | 
C=CCn1c(SCC(=O)Nc2sc3c(c2C(N)=O)CCC3)nc2scc(-c3cccc([N+](=O)[O-])c3)c2c1=O [Compound 3c, 2-(2-(3-Allyl-3,4-dihydro-4-oxo-5-(3-nitrophenyl)thieno[2,3-d]pyrimidin-2-ylthio)acetamido)-5,6-dihydro-4H-cyclopenta[b]thiophene-3-carboxamide] |  | 53% |  | 

Now from value to compound:

IC50 [1] | inhibition at 10 µM [1] | inhibitory activity relative to prototype compound 1 (times greater) ([1]; ratio of IC50s against FP-2 versus compound 1) | melting point | Compound
6.63 µM | 93.3% |  | 166 to 170 °C | C=CCn1c(SCC(=O)Nc2sc3c(c2C(=O)OCC)CCC3)nc2scc(-c3ccccc3)c2c1=O [Compound 4a, Ethyl 2-(2-(3-allyl-3,4-dihydro-4-oxo-5-phenylthieno[2,3-d]pyrimidin-2-ylthio)acetamido)-5,6-dihydro-4H-cyclopenta[b]thiophene-3-carboxylate]
5.7 µM | 94.3% |  |  | C=CCn1c(SCC(=O)Nc2ccc(C(=O)OCC)cc2)nc2scc(-c3ccccc3)c2c1=O [Compound 4b, Ethyl 4-(2-(3-allyl-3,4-dihydro-4-oxo-5-phenylthieno[2,3-d]pyrimidin-2-ylthio)acetamido) benzoate]
3.31 µM | 90.3% |  | 192 to 194 °C | C=CCn1c(SCC(=O)Nc2nc3ccccc3s2)nc2scc(-c3ccccc3)c2c1=O [Compound 4c, 2-(3-Allyl-3,4-dihydro-4-oxo-5-phenylthieno[2,3-d]pyrimidin-2-ylthio)-N-(benzo[d]thiazol-2-yl)-acetamide]
 |  |  | 212 to 214 °C | C=CCn1c(SCC(=O)Nc2sc3c(c2C(N)=O)CCCC3)nc2scc(-c3ccccc3)c2c1=O [Compound 4d, 2-(2-(3-Alyl-3,4-dihydro-4-oxo-5-phenylthieno[2,3-d]pyrimidin-2-ylthio)acetamido)-4,5,6,7-tetra-hydrobenzo[b]thiophene-3-carboxamide]
5.58 µM | 72% |  | 136 to 140 °C | C=CCn1c(SCC(=O)Nc2sc(C(=O)OCC)c(C)c2C(N)=O)nc2scc(-c3ccccc3)c2c1=O [Compound 4e, Ethyl 5-(2-(3-allyl-3,4-dihydro-4-oxo-5-phenylthieno[2,3-d]pyrimidin-2-ylthio)acetamido)-4-carbamoyl-3-methylthiophene-2-carboxylate]
5.43 µM | > 90% |  |  | C=CCn1c(SCC(=O)Nc2ccc(F)c(Cl)c2)nc2scc(-c3ccccc3)c2c1=O [Compound 4f, 2-(3-Allyl-3,4-dihydro-4-oxo-5-phenylthieno[2,3-d]pyrimidin-2-ylthio)-N-(3-chloro-4-fluorophenyl)-acetamide]
